Several values for one entry are separate records, joined by “and”; a condition that tells them apart may be missing. Equal entries are not always repeated.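 Cells were grown in 96-well plates and exposed to each compound for 48 hours at five concentrations; endpoints were interpolated linearly between bracketing concentrations, or set to the highest concentration if not reached. GI50: concentration for 50% inhibition of growth. TGI: concentration producing complete growth inhibition.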
Test system: MDA-MB-468 breast
Test: inhibition of tumour cell growth, NCI panel, 48 h

`Clc1ccc(Nc2nnc(COc3ccccc3)c3ccccc23)cc1` gave a GI50 of 1490 nM and a TGI of 7620 nM.
In the case of `Cn1cc(-c2[nH]c3cc(NC(=O)[C@H](N)C4CCCCC4)cc4c3c2C=NNC4=O)cn1`, the GI50 is reported as 164 nM and 503 nM and the TGI is reported as 827 nM and > 5300 nM.
For `CC(=O)OCc1cc[c]([Hg][Cl])o1`, the GI50 was 1500 nM and the TGI was 3440 nM.
With `O=C(Nc1c(Cl)cccc1Cl)Oc1cccc2cccnc12` the GI50 was 2910 nM and the TGI was 13900 nM.
Work on `C#Cc1cccc(NC(=O)C2CCCCN2C(=O)CCl)c1` (configuration not stated) yielded a GI50 of 11200 nM and a TGI of 34100 nM.
Work on `Nc1nc(N)c2c(n1)NC(c1ccc(Cl)cc1)C1CCc3ccccc3C1=N2` (configuration not stated) yielded a GI50 of 1600 nM and a TGI of 14500 nM.
In the case of `CN1CCN(CCCn2c3c(sc4ncccc43)c(=O)n3nnc(-c4ccccc4)c23)CC1`, the GI50 is reported as 1720 nM and the TGI is reported as 3250 nM.
With `COc1cccc(/C=C/C(=O)c2cc3c(N)c(C(=O)Nc4ccccc4)sc3nc2C)c1` the GI50 was 906 nM and the TGI was 1840 nM.
`Cc1cc(C(=O)NOCCO)c(Nc2ccc(I)cc2F)n(C)c1=O` was tested, and the GI50 was > 10000 nM and 68200 nM and the TGI was over 100000 nM.
`COc1ccc(COc2ccc(Cc3cnc(N)nc3N)cc2OC)cc1` gave a GI50 of 3270 nM and a TGI of 19600 nM.
For `CC1(/C=C/c2ccc(-c3ccccc3)cc2)CCn2cnc3ncnc(c32)N1O` (configuration not stated), the GI50 was 276 nM and the TGI was 872 nM.
`O=[N+]([O-])c1ccc(NC(c2ccccc2)c2ccc3cccnc3c2O)cc1` (configuration not stated) showed a GI50 of 363 nM and a TGI of 2050 nM.
Molecule `COc1cc2cc(Oc3ccc(NC(=O)c4cccc(C(F)(F)F)c4)cc3)c(C)nc2cc1OCCN1CCCCC1` has a GI50 of 14100 nM and a TGI of 29100 nM.
In the case of `COc1ccc(C2CC(=O)Nc3c2c(C)nn3-c2nc3ccccc3[nH]2)cc1OC` (configuration not stated), the GI50 is reported as 3090 nM and the TGI is reported as 16800 nM.
`COc1ccc(N2CCN(c3nc(-c4ccccn4)nc4sc5c(c34)CCCCCC5)CC2)cc1` was tested, and the GI50 was 4110 nM and the TGI was over 100000 nM.
`Nc1cc2c3ccccc3ccc2c2ccccc12` was tested, and the GI50 was over 100000 nM and the TGI was over 100000 nM.
Work on `c1ccc2c(c1)CCCc1nnc3nc4ccccc4n3c1-2` yielded a GI50 of 6550 nM and a TGI of 74700 nM.
For `C[C@H]1O[C@@H](O[C@H]2[C@@H](O)C[C@H](O[C@H]3[C@@H](O)C[C@H](O[C@H]4CC[C@]5(C)C6CC[C@]7(C)[C@@H](C8=CC(=O)OC8)CC[C@]7(O)C6CC[C@@H]5C4)O[C@@H]3C)O[C@@H]2C)C[C@H](O)[C@@H]1O` (some centres not stated), the GI50 was 66.7 nM and the TGI was 202 nM.
`COC1C[C@H](O[C@@H]2C[C@H](O[C@@H]3C[C@H](O[C@@H]4C(=O)c5c(cc6cc(O[C@H]7C[C@@H](O[C@H]8C[C@@H](O)[C@H](O)C(C)O8)[C@H](O)C(C)O7)c(C)c(O)c6c5O)C[C@H]4C(OC)C(=O)[C@@H](O)[C@@H](C)O)OC(C)[C@H]3O)OC(C)[C@@H]2O)OC(C)[C@@H]1O` (some centres not stated) was tested, and the GI50 was 109 nM and the TGI was 723 nM.
`O=C(Nc1n[nH]c2cc(-c3ccc(F)cc3)ccc12)C1CC1` showed a GI50 of 3420 nM and a TGI of over 16200 nM.
`O=C(COc1ccc(Cl)cc1Cl)NNc1ccc([N+](=O)[O-])cc1` gave a GI50 of 37500 nM and a TGI of over 100000 nM.
`COc1ccc(CNCCN2C(=O)c3ccc4c5c(ccc(c35)C2=O)C(=O)N(CCNCc2ccc(OC)c(OC)c2OC)C4=O)c(OC)c1OC` was tested, and the GI50 was 82.2 nM and the TGI was 164 nM.
`O=C1NC(=O)/C(=C/c2ccc3nccc(-c4ccncc4)c3c2)S1` gave a GI50 of 185 nM and a TGI of 1170 nM.
With `CCN1C(=O)N(CC)C2C1NN=c1s/c(=C\c3ccc(Br)cc3)c(=O)n12` (configuration not stated) the GI50 was 69.7 nM and the TGI was 516 nM.
`COc1cc(/C=C/[N+](=O)[O-])cc(OC)c1` showed a GI50 of 1640 nM and a TGI of 3530 nM.
For `O=C(Nc1cccc(Cl)c1)Nc1cc(C(F)(F)F)ccc1Cl`, the GI50 was 1990 nM and the TGI was 4730 nM.
With `O=C(Nc1ccc([N+](=O)[O-])cc1Cl)c1cc(Cl)ccc1O` the GI50 was 121 nM and 260 nM and the TGI was 388 nM and 782 nM.
`COc1cc(N2CCN(C(C)C)CC2)ccc1Nc1nc(Nc2ccc(F)cc2C(N)=O)c2cc[nH]c2n1` was tested, and the GI50 was 999 nM and the TGI was 5490 nM.
With `CNC(=O)c1cc(Oc2ccc(NC(=O)Nc3ccc(Cl)c(C(F)(F)F)c3)cc2)ccn1` the GI50 was 1420 nM and 2030 nM and 2090 nM and the TGI was 7910 nM and 8050 nM and 7700 nM.
`Cn1cc(-c2nc(-c3c[nH]c4ccccc34)cs2)c2cccnc21` was tested, and the GI50 was 252 nM and the TGI was 827 nM.
In the case of `Cc1cccc(Nc2ncc(-c3ccccc3)o2)c1`, the GI50 is reported as 7050 nM and the TGI is reported as over 25000 nM.
`CS(=O)(=O)Nc1cc(-c2ccc3ncnc(Nc4ccc(OCc5ccccn5)c(Cl)c4)c3c2)cnc1Cl` gave a GI50 of 156 nM and a TGI of 780 nM.
`C=C1C(=O)O[C@H]2[C@H]1CC/C(COC(=O)NCCc1ccc(Br)cc1)=C\CC[C@@]1(C)O[C@@H]21` was tested, and the GI50 was 841 nM and the TGI was 2470 nM.
With `COc1cc2cc(C(=O)Nc3ccccc3)c(N)nc2cc1OC` the GI50 was 21900 nM and the TGI was over 100000 nM.
With `O=C(/C=C/c1cc2ccccc2[nH]c1=O)c1ccc(O)cc1` the GI50 was 2120 nM and the TGI was 5300 nM.
`Cc1c(-c2c(F)cc(C(N)=O)c3[nH]c4c(c23)CC[C@H](C(C)(C)O)C4)cccc1-n1c(=O)c2cccc(F)c2n(C)c1=O` was tested, and the GI50 was 3060 nM and the TGI was over 100000 nM.
`O=c1[nH]c(=O)n(C2C[C@@H](O)[C@@H](CO)O2)cc1F` (some centres not stated) gave a GI50 of 44.4 nM and a TGI of 36300 nM.
In the case of `CCCCCCCN(CCCCCCC)C(=N)c1ccc(OC)c2ccccc12`, the GI50 is reported as 1230 nM and the TGI is reported as 2810 nM.
`c1ccc(OCC[P+](c2ccccc2)(c2ccccc2)c2ccccc2)cc1` gave a GI50 of 152 nM and a TGI of 736 nM.
Molecule `Fc1ccc(Nc2ccnc(N3CCN(c4ccnc5cc(Cl)ccc45)CC3)n2)cc1` has a GI50 of 2410 nM and a TGI of 19300 nM.
`Cc1ccccc1N=C(c1ccccc1)C1C(=O)c2ccccc2C1=O` was tested, and the GI50 was 6220 nM and the TGI was over 100000 nM.
